In article PMC8635029 (Frontiers in Pharmacology, 2021):

Legend:
Test in all cases: In vitro SafetyScreen panel
Type in all cases: binding
Adrenergic α1A = biological target: T1, Adrenergic α1A (Rattus norvegicus, UniProt P43140)
T1 construct: Eurofins Discovery (contract panel) PP223
Experimental: (§1) In vitro off-target pharmacological activities of HSK21542 were evaluated on 86 targets using a SafetyScreen panel (Item PP223, target selectivity panel) and the corresponding methods could be found at https://www.eurofinsdiscoveryservices.com/.

Adrenergic α1D = biological target: T2, Adrenergic α1D (Homo sapiens, UniProt P25100)
T2 construct: Eurofins Discovery (contract panel) PP223
T2 sequence (P25100 whole entry): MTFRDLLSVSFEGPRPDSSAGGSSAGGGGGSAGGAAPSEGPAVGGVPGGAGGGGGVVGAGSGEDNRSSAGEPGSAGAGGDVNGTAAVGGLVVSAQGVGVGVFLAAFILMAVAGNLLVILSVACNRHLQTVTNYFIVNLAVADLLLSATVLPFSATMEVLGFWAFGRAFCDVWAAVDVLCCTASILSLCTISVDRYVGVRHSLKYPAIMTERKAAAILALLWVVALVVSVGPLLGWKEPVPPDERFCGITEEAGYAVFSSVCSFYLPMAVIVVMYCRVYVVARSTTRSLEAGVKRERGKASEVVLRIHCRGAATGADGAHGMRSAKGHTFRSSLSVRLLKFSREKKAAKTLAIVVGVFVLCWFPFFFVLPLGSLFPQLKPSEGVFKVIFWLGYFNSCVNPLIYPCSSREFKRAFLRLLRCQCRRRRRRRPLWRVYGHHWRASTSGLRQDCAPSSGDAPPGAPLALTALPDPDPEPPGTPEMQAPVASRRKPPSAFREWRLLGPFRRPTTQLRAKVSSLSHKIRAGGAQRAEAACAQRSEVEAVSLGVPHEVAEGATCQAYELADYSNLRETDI
Experimental: as §1

Adrenergic α2B = biological target: T3, Adrenergic α2B (Homo sapiens, UniProt P18089)
T3 construct: Eurofins Discovery (contract panel) PP223
Experimental: as §1

Adrenergic β1 = biological target: T4, Adrenergic β1 (Homo sapiens, UniProt P08588)
T4 construct: Eurofins Discovery (contract panel) PP223
Experimental: as §1

Bradykinin B2 = biological target: T5, Bradykinin B2 (Homo sapiens, UniProt P30411)
T5 construct: Eurofins Discovery (contract panel) PP223
Experimental: as §1

Calcium Channel N-Type = biological target: T6, Calcium Channel N-Type (Rattus norvegicus, UniProt Q02294)
T6 construct: Eurofins Discovery (contract panel) PP223
T6 sequence (Q02294 whole entry): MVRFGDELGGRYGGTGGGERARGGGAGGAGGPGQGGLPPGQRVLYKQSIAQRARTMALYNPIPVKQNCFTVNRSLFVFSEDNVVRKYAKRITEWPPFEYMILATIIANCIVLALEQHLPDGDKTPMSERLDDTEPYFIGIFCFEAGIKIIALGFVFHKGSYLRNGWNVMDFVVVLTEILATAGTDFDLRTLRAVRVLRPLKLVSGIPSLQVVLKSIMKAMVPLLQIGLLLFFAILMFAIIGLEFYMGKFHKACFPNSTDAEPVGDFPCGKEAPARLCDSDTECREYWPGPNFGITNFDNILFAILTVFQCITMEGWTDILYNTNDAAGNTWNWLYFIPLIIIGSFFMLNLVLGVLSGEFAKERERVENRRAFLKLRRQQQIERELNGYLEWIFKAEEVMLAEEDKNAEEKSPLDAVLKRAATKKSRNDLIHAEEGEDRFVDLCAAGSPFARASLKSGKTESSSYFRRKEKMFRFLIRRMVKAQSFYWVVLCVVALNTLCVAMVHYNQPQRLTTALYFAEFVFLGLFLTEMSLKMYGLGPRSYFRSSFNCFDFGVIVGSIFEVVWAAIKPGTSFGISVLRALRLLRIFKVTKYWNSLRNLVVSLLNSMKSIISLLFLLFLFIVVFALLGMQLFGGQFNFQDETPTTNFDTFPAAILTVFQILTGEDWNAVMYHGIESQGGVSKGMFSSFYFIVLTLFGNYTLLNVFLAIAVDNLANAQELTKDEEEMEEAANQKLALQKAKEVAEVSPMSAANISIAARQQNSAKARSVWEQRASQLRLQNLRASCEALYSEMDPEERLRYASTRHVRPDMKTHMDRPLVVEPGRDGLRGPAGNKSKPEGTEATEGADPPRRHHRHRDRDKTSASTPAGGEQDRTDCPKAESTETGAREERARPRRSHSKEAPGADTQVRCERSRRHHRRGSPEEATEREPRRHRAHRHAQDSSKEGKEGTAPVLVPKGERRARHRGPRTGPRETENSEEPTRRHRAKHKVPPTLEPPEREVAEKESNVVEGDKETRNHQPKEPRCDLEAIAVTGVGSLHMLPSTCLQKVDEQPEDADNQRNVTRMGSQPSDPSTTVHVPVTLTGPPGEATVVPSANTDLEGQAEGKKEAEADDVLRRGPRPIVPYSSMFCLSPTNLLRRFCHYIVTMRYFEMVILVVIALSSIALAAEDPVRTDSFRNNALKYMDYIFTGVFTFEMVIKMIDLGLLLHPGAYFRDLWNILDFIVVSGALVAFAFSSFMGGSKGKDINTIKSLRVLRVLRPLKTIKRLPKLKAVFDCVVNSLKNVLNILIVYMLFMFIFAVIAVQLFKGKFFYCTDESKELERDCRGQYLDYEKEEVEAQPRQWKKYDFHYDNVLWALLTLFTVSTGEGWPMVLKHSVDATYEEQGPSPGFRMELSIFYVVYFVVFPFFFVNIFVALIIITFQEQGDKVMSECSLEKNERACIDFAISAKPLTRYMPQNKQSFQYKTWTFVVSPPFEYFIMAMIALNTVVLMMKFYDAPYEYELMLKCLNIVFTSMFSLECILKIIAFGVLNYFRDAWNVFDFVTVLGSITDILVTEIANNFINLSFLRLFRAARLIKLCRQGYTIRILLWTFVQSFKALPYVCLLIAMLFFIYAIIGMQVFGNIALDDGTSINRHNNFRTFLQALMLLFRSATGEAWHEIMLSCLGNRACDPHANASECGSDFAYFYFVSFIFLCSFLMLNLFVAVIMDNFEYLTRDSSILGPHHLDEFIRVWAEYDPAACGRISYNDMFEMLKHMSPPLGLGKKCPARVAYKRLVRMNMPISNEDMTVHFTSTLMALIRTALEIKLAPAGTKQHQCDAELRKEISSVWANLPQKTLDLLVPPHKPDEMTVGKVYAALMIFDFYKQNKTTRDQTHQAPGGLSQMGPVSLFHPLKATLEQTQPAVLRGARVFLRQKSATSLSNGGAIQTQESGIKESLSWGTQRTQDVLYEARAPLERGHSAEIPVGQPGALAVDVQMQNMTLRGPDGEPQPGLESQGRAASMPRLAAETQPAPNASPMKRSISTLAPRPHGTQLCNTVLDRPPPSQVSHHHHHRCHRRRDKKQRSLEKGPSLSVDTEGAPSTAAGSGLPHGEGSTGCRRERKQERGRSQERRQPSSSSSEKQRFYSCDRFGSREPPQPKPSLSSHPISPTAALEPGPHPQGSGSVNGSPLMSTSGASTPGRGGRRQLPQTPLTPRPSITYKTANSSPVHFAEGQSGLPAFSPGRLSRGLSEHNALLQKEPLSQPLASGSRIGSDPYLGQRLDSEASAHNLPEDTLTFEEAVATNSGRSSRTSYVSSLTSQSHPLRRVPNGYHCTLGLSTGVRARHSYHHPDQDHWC
T6 sequence (P54290 25-1091 partner): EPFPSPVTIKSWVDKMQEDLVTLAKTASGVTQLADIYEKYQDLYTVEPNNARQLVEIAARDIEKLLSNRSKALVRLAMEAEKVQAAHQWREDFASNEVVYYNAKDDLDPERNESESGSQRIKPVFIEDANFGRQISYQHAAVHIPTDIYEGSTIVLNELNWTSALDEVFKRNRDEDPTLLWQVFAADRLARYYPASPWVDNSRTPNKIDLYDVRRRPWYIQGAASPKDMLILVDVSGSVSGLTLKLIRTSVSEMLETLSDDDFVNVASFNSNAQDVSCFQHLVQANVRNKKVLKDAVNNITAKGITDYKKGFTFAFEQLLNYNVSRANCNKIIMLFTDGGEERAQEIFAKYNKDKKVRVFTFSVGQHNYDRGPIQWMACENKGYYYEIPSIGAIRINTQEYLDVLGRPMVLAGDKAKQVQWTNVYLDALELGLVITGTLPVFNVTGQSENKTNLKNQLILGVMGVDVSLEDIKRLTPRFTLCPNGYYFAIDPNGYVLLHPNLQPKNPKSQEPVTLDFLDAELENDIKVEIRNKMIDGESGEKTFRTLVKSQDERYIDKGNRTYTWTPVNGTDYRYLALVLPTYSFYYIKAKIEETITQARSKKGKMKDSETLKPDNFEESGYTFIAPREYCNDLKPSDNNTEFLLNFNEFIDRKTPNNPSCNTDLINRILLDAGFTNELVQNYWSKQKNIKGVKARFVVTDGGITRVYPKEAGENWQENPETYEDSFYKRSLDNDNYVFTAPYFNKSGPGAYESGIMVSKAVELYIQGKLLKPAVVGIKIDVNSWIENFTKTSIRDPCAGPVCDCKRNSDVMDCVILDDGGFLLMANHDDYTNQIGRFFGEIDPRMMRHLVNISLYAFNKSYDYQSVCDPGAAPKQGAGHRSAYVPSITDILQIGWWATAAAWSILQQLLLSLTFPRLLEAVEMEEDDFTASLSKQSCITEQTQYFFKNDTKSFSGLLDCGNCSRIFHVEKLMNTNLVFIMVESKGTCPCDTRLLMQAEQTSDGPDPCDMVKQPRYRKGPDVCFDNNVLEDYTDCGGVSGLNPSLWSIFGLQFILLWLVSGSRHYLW
T6 sequence (P54287 whole entry partner): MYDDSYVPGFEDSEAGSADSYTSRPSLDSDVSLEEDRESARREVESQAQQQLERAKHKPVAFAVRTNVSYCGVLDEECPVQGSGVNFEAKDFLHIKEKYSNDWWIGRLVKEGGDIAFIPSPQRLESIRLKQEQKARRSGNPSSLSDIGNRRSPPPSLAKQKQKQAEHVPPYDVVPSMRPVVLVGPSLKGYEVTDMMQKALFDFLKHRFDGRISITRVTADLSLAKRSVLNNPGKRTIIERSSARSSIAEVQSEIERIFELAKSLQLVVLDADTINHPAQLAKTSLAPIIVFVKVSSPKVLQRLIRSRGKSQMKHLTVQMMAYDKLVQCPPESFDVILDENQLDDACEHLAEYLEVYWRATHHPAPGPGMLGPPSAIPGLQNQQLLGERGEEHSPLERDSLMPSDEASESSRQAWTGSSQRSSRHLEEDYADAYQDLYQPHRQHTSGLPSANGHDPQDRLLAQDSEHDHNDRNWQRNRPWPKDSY
Experimental: as §1

Cannabinoid CB1 = biological target: T7, Cannabinoid CB1 (Homo sapiens, UniProt P21554)
T7 construct: Eurofins Discovery (contract panel) PP223
Experimental: as §1

Cannabinoid CB2 = biological target: T8, Cannabinoid CB2 (Homo sapiens, UniProt P34972)
T8 construct: Eurofins Discovery (contract panel) PP223
Experimental: as §1

[1] = biological target: T9, Cholecystokinin CCK1 (CCKA) (Homo sapiens, UniProt P32238)
T9 construct: Eurofins Discovery (contract panel) PP223
Experimental: as §1

Dopamine D2L = biological target: T10, Dopamine D2L (Homo sapiens, UniProt P14416)
T10 construct: Eurofins Discovery (contract panel) Item PP223
Experimental: as §1

Dopamine D2S = biological target: T11, Dopamine D2S (Homo sapiens, UniProt P14416)
T11 construct: Eurofins Discovery (contract panel) Item PP223
Experimental: as §1

Endothelin ETA = biological target: T12, Endothelin ETA (Homo sapiens, UniProt P25101)
T12 construct: Eurofins Discovery (contract panel) Item PP223
Experimental: as §1

Estrogen ERα = biological target: T13, Estrogen ERα (Homo sapiens, UniProt P03372)
T13 construct: Eurofins Discovery (contract panel) Item PP223
Experimental: as §1

GABAB1A = biological target: T14, GABAB1A (Homo sapiens, UniProt Q9UBS5)
T14 construct: Eurofins Discovery (contract panel) Item PP223
Experimental: as §1

Glucocorticoid = biological target: T15, Glucocorticoid (Homo sapiens, UniProt P04150)
T15 construct: Eurofins Discovery (contract panel) Item PP223
Experimental: as §1

[2] = biological target: T16, Glutamate, Metabotropic, mGlu5 (Homo sapiens, UniProt P41594)
T16 construct: Eurofins Discovery (contract panel) Item PP223
Experimental: as §1

Histamine H2 = biological target: T17, Histamine H2 (Homo sapiens, UniProt P25021)
T17 construct: Eurofins Discovery (contract panel) Item PP223
Experimental: as §1

[3] = biological target: T18, Leukotriene, Cysteinyl CysLT1 (Homo sapiens, UniProt Q9Y271)
T18 construct: Eurofins Discovery (contract panel) Item PP223
Experimental: as §1

Melanocortin MC1 = biological target: T19, Melanocortin MC1 (Homo sapiens, UniProt Q01726)
T19 construct: Eurofins Discovery (contract panel) Item PP223
Experimental: as §1

Melanocortin MC4 = biological target: T20, Melanocortin MC4 (Homo sapiens, UniProt P32245)
T20 construct: Eurofins Discovery (contract panel) Item PP223
Experimental: as §1

Muscarinic M1 = biological target: T21, Muscarinic M1 (Homo sapiens, UniProt P11229)
T21 construct: Eurofins Discovery (outsourced panel) PP223
Experimental: as §1

Muscarinic M2 = biological target: T22, Muscarinic M2 (Homo sapiens, UniProt P08172)
T22 construct: Eurofins Discovery (outsourced panel) PP223
Experimental: as §1

Neuropeptide YY1 = biological target: T23, Neuropeptide YY1 (Homo sapiens, UniProt P25929)
T23 construct: Eurofins Discovery (outsourced panel) PP223
Experimental: as §1

[4] = biological target: T24, Serotonin (5-Hydroxytryptamine) 5-HT1A (Homo sapiens, UniProt P08908)
T24 construct: Eurofins Discovery (outsourced panel) PP223
Experimental: as §1

[5] = biological target: T25, Serotonin (5-Hydroxytryptamine) 5-HT2A (Homo sapiens, UniProt P28223)
T25 construct: Eurofins Discovery (outsourced panel) PP223
Experimental: as §1

[6] = biological target: T26, Serotonin (5-Hydroxytryptamine) 5-HT2B (Homo sapiens, UniProt P41595)
T26 construct: Eurofins Discovery (contract panel) PP223
Experimental: as §1

[7] = biological target: T27, Serotonin (5-Hydroxytryptamine) 5-HT2C (Homo sapiens, UniProt P28335)
T27 construct: Eurofins Discovery (contract panel) PP223
Experimental: as §1

[8] = biological target: T28, Serotonin (5-Hydroxytryptamine) 5-HT3 (Homo sapiens, UniProt P46098)
T28 construct: Eurofins Discovery (contract panel) PP223
Experimental: as §1

Tachykinin NK1 = biological target: T29, Tachykinin NK1 (Homo sapiens, UniProt P25103)
T29 construct: Eurofins Discovery (contract panel) PP223
Experimental: as §1

Vasopressin V1A = biological target: T30, Vasopressin V1A (Homo sapiens, UniProt P37288)
T30 construct: Eurofins Discovery (contract panel) PP223
Experimental: as §1

T1 sequence (P43140 whole entry): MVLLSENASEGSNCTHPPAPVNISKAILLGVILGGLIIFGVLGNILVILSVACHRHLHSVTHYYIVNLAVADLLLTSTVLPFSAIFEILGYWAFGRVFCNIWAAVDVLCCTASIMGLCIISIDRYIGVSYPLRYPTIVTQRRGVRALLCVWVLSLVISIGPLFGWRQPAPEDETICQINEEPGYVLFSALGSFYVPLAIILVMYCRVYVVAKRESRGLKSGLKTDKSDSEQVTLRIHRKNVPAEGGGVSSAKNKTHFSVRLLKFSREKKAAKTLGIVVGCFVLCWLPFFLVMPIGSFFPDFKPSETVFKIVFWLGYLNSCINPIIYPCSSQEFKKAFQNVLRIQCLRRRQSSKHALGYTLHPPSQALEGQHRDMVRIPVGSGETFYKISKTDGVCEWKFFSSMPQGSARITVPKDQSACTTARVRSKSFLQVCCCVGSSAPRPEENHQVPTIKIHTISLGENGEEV

CC(=O)N1CC2(CCN(C(=O)[C@@H](CCCCN)NC(=O)[C@@H](CC(C)C)NC(=O)[C@@H](Cc3ccccc3)NC(=O)[C@H](N)Cc3ccccc3)CC2)C1 [HSK21542, 7-(D-phenylalanyl-D-phenylalanyl-D-leucyl-D-lysyl)-2-acetyl-2,7-diazaspiro (3.5)nonane]
inhibition at 10 µM (Adrenergic α1A): 12%
inhibition at 10 µM (Adrenergic α1D): -1%
inhibition at 10 µM (Adrenergic α2B): -6%
inhibition at 10 µM (Adrenergic β1): 11%
inhibition at 10 µM (Bradykinin B2): -3%
inhibition at 10 µM (Calcium Channel N-Type): -3%
inhibition at 10 µM (Cannabinoid CB1): 47%
inhibition at 10 µM (Cannabinoid CB2): -30%
inhibition at 10 µM [1]: 5%
inhibition at 10 µM (Dopamine D2L): -6%
inhibition at 10 µM (Dopamine D2S): -15%
inhibition at 10 µM (Endothelin ETA): 4%
inhibition at 10 µM (Estrogen ERα): 0%
inhibition at 10 µM (GABAB1A): -8%
inhibition at 10 µM (Glucocorticoid): 8%
inhibition at 10 µM [2]: 19%
inhibition at 10 µM (Histamine H2): 8%
inhibition at 10 µM [3]: 8%
inhibition at 10 µM (Melanocortin MC1): -3%
inhibition at 10 µM (Melanocortin MC4): 27%
inhibition at 10 µM (Muscarinic M1): 9%
inhibition at 10 µM (Muscarinic M2): 1%
inhibition at 10 µM (Neuropeptide YY1): -8%
inhibition at 10 µM [4]: 1%
inhibition at 10 µM [5]: 0%
inhibition at 10 µM [6]: 0%
inhibition at 10 µM [7]: 0%
inhibition at 10 µM [8]: 14%
inhibition at 10 µM (Tachykinin NK1): 21%
inhibition at 10 µM (Vasopressin V1A): -24%
